{"source": "the NIST ThermoML archive (doi:10.1021/je300835h)", "conditions": "Liquid, Ebulliometric method (Recirculating still)", "note": "± gives the expanded uncertainty stated by the source."}
{"smiles": "CCCCO", "note": "[butan-1-ol]", "values": [{"measurement": "vapor or sublimation pressure", "setting": "390.65 K", "result": "101.3 ± 1", "unit": "kPa"}]}
{"smiles": "CO", "note": "[methanol]", "values": [{"measurement": "vapor or sublimation pressure", "setting": "337.75 K", "result": "101.3 ± 1", "unit": "kPa"}]}
{"smiles": "C=COC(C)=O", "note": "[vinyl acetate]", "values": [{"measurement": "vapor or sublimation pressure", "setting": "345.75 K", "result": "101.3 ± 1", "unit": "kPa"}]}
